Experiments:
Format in all cases: functional
[1] = system: Mus musculus; assay: Analgesic activity in mouse assessed as pain threshold variation at 25 umol/kg, po after 30 mins (RVb = -1 +/- 2.8 %)
[2] = system: Mus musculus; assay: Analgesic activity in mouse assessed as pain threshold variation at 30 umol/kg, po after 30 mins (RVb = 0.13 +/- 0.14 %)
[3] = system: Mus musculus; assay: Analgesic activity in mouse assessed as pain threshold variation at 25 umol/kg, po after 150 mins (RVb = 3.98 +/- 4.03 %)
[4] = system: Mus musculus; assay: Analgesic activity in mouse assessed as pain threshold variation at 30 umol/kg, po after 90 mins (RVb = 0.17 +/- 0.14 %)
[5] = system: Mus musculus; assay: Analgesic activity in mouse assessed as pain threshold variation at 30 umol/kg, po after 150 mins (RVb = 0.16 +/- 0.13 %)
[6] = system: Mus musculus; assay: Analgesic activity in mouse assessed as pain threshold variation at 25 umol/kg, po after 120 mins (RVb = 0.69 +/- 1.98 %)
[7] = system: Mus musculus; assay: Analgesic activity in mouse assessed as pain threshold variation at 25 umol/kg, po after 60 mins (RVb = -6.5 +/- 1.79 %)
[8] = system: Mus musculus; assay: Analgesic activity in mouse assessed as pain threshold variation at 25 umol/kg, po after 90 mins (RVb = 0.2 +/- 3.75 %)
[9] = system: Mus musculus; assay: Analgesic activity in mouse assessed as pain threshold variation at 30 umol/kg, po after 120 mins (RVb = 0.18 +/- 0.15 %)
[10] = system: Mus musculus; assay: Analgesic activity in mouse assessed as pain threshold variation at 30 umol/kg, po after 180 mins (RVb = 0.15 +/- 0.12 %)
[11] = system: Mus musculus; assay: Analgesic activity in mouse assessed as pain threshold variation at 25 umol/kg, po after 180 mins (RVb = -5.10 %)
[12] = system: Mus musculus; assay: Analgesic activity in mouse assessed as pain threshold variation at 30 umol/kg, po after 60 mins (RVb = 0.15 +/- 0.16 %)

| SMILES | Activity [1] [%] | Activity [2] [%] | Activity [3] [%] | Activity [4] [%] | Activity [5] [%] | Activity [6] [%] | Activity [7] [%] | Activity [8] [%] | Activity [9] [%] | Activity [10] [%] | Activity [11] [%] | Activity [12] [%] |
| --- | --- | --- | --- | --- | --- | --- | --- | --- | --- | --- | --- | --- |
| Clc1nc(NC2CC2)c2ncn(C3CCCCO3)c2n1 (stereo not drawn) | 10.27 | 15.2 | 5.72 | 16.96 | 10.78 | 12.64 | 20.63 | 11.93 | 15.66 | 9.95 | 5.92 | 25.61 |
| O=C(CN(c1nc(Cl)nc2c1ncn2C1CCCCO1)C1CC1)N[C@@H](CC(=O)OCc1ccccc1)C(=O)OCc1ccccc1 (stereo partly drawn) | 31.81 | – | 0.06 | – | – | 7.82 | 38.15 | 25.07 | – | – | 0.03 | – |
| O=C(CN(c1nc(Cl)nc2c1ncn2C1CCCCO1)C1CC1)N[C@@H](CCC(=O)OCc1ccccc1)C(=O)OCc1ccccc1 (stereo partly drawn) | 32.61 | – | 14.14 | – | – | 20.71 | 34.74 | 25.2 | – | – | 10.93 | – |
| CC(C)(C)OC(=O)NCCCC[C@H](NC(=O)CN(c1nc(Cl)nc2c1ncn2C1CCCCO1)C1CC1)C(=O)OCc1ccccc1 (stereo partly drawn) | 18.33 | – | 17.2 | – | – | 28.39 | 32.66 | 32.85 | – | – | 10.06 | – |
| O=C(CN(c1nc(Cl)nc2c1ncn2C1CCCCO1)C1CC1)N[C@@H](Cc1ccccc1)C(=O)OCc1ccccc1 (stereo partly drawn) | 39.2 | – | 3.49 | – | – | 26.29 | 45.54 | 37.73 | – | – | 1.79 | – |
| O=C(CN(c1nc(Cl)nc2c1ncn2C1CCCCO1)C1CC1)N[C@@H](Cc1c[nH]c2ccccc12)C(=O)OCc1ccccc1 (stereo partly drawn) | 43.53 | – | 11.45 | – | – | 22.58 | 51.9 | 38.93 | – | – | 5.15 | – |
| O=C(CN(c1nc(Cl)nc2c1ncn2C1CCCCO1)C1CC1)N[C@@H](Cc1ccc(O)cc1)C(=O)OCc1ccccc1 (stereo partly drawn) | 20.53 | – | 8.71 | – | – | 17.44 | 35.82 | 36.45 | – | – | 12.02 | – |
| Clc1nc(Cl)c2nc[nH]c2n1 | – | 12.22 | – | 14.02 | 8.77 | – | – | – | 12.97 | 7.99 | – | 21.62 |
| Clc1nc(Cl)c2ncn(C3CCCCO3)c2n1 (stereo not drawn) | – | 14.3 | – | 15.01 | 9.89 | – | – | – | 14.13 | 8.03 | – | 23.99 |
| CSCC[C@H](NC(=O)CN(c1nc(Cl)nc2c1ncn2C1CCCCO1)C1CC1)C(=O)OCc1ccccc1 (stereo partly drawn) | 30.04 | – | 17.47 | – | – | 28.66 | 40.97 | 42.7 | – | – | 12.89 | – |
| O=C(OCc1ccccc1)[C@@H]1CCCN1C(=O)CN(c1nc(Cl)nc2c1ncn2C1CCCCO1)C1CC1 (stereo partly drawn) | 32.25 | – | 7.85 | – | – | 17.49 | 36.73 | 23.31 | – | – | 6.63 | – |
| O=C(CN(c1nc(Cl)nc2c1ncn2C1CCCCO1)C1CC1)N[C@@H](CO)C(=O)OCc1ccccc1 (stereo partly drawn) | 27.77 | – | 18.32 | – | – | 29.2 | 46.71 | 32.17 | – | – | 12.85 | – |
